We go through 35 molecules from patent publication US8158792B2, “Spiropiperidines for use as tryptase inhibitors” (Janssen Pharmaceutica N.V., priority 2007, dated 2012).

The assay has as its target human lung tryptase. In words: β-Tryptase In-Vitro Enzyme Assay. Type of assay: biochemical. As to conditions: human lung tryptase 1 nM, substrate H-D-HHT-Ala-Arg-pNa 500 μM, pH 7.4, room temperature. The protocol:
The β-tryptase assay was conducted with human lung tryptase (Cortex Biochem #CP3033) in an aqueous buffer (10 mM Tris, 10 mM Hepes, 150 mM NaCl, 0.1% PEG 8000, pH 7.4) using the chromogenic substrate H-D-HHT-Ala-Arg-pNa. […] Percent inhibition was calculated by comparing the initial reaction velocity of samples without inhibitor to those with inhibitor. The initial reaction velocities were analyzed using Microsoft Excel.
By IC50 is commonly meant the concentration at which inhibition is half-maximal. In turn, `NCc1ccc2c(c1)C1(CCN(C(=O)c3ccc(-c4cccc(C(F)(F)F)c4)o3)CC1)CO2` [Cpd 135, 1-[5-(3-trifluoromethyl-phenyl)-furan-2-yl]carbonyl-5′-aminomethyl-spiro[piperidine-4,3′-(2H)-benzo[b]furan]] came in with an IC50 of 330 nM.
As for `NCc1ccc2c(c1)C1(CCN(C(=O)c3ccc(C#Cc4ccccc4)o3)CC1)CN2S(=O)(=O)c1ccc(C(=O)O)cc1` [Cpd 324, 1-(5-phenylethynyl-furan-2-yl)carbonyl-1′-(4-carboxy-phenyl)sulfonyl-5′-aminomethyl-spiro[piperidine-4,3′-(2H)-indole]], the figure is 200 nM; as for `C=CCc1ccc(OCc2ccc(C(=O)N3CCC4(CC3)COc3ccc(CN)cc34)o2)c(OC)c1` [Cpd 224, 1-[5-(2-methoxy-4-allyl-phenoxymethyl)-furan-2-yl]carbonyl-5′-aminomethyl-spiro[piperidine-4,3′-(2H)-benzo[b]furan]], 280 nM; as for `Cc1ccc(C#Cc2ccc(C(=O)N3CCC4(CC3)COc3ccc(CN)cc34)o2)cc1` [Cpd 170, 1-[5-(4-methyl-phenylethynyl)-furan-2-yl]carbonyl-5′-aminomethyl-spiro[piperidine-4,3′-(2H)-benzo[b]furan]], 8.3 nM.
In the case of `Cc1nn(-c2ccc(C(=O)N3CCC4(CC3)COc3ccc(CN)cc34)o2)c(C)c1Br` [Cpd 150, 1-[5-(3,5-dimethyl-4-bromo-pyrazol-1-yl)-furan-2-yl]carbonyl-5′-aminomethyl-spiro[piperidine-4,3′-(2H)-benzo[b]furan]] it was 180 nM.
As for `NCc1ccc2c(c1)C1(CCN(C(=O)c3ccc4ccccc4c3)CC1)CO2` [Cpd 70, 1-naphthalen-2-ylcarbonyl-5′-aminomethyl-spiro[piperidine-4,3′-(2H)-benzo[b]furan]], the figure is 150 nM; as for `NCc1ccc2c(c1)C1(CCN(C(=O)c3cccc(-c4ccc5c(c4)OCO5)c3)CC1)CO2` [Cpd 20, 1-(3-benzodioxol-5-yl-phenyl)carbonyl-5′-aminomethyl-spiro[piperidine-4,3′-(2H)-benzo[b]furan]], 140 nM; as for `COc1cccc(C(=O)N2CCC3(CC2)COc2ccc(CN)cc23)c1` [Cpd 53, 1-(3-methoxy-phenyl)carbonyl-5′-aminomethyl-spiro[piperidine-4,3′-(2H)-benzo[b]furan]], 870 nM.
With `NCc1ccc2c(c1)C1(CCN(C(=O)c3ccc(-c4ccc(Cl)c(Cl)c4)o3)CC1)CO2` [Cpd 138, 1-[5-(3,4-dichloro-phenyl)-furan-2-yl]carbonyl-5′-aminomethyl-spiro[piperidine-4,3′-(2H)-benzo[b]furan]], inhibition was half-maximal at 140 nM (IC50).
In the case of `NCc1ccc2c(c1)C1(CCN(C(=O)C=C3OC(=O)c4ccccc43)CC1)CO2` [Cpd 215, 1-[1-oxo-2-(3-oxo-3H-isobenzofuran-1-ylidene)-ethyl]-5′-aminomethyl-spiro[piperidine-4,3′-(2H)-benzo[b]furan]] it was 760 nM.
In the case of `COc1ccc(-c2cccc(C(=O)N3CCC4(CC3)COc3ccc(CN)cc34)c2)cc1` [Cpd 64, 1-[3-(4-methoxy-phenyl)-phenyl]carbonyl-5′-aminomethyl-spiro[piperidine-4,3′-(2H)-benzo[b]furan]] it was 95 nM; in that of `NCc1ccc2c(c1)C1(CCN(C(=O)c3ccc(Sc4ccccc4)o3)CC1)CO2` [Cpd 23, 1-[(5-phenylthio)-furan-2-yl]carbonyl-5′-aminomethyl-spiro[piperidine-4,3′-(2H)-benzo[b]furan]], 90 nM.
As for `NCc1ccc2c(c1)C1(CCN(C(=O)c3ccc4ncsc4c3)CC1)CO2` [Cpd 16, 1-benzothiazol-6-ylcarbonyl-5′-aminomethyl-spiro[piperidine-4,3′-(2H)-benzo[b]furan]], the figure is 430 nM; as for `NCc1ccc2c(c1)C1(CCN(C(=O)c3ccc(Br)c([N+](=O)[O-])c3)CC1)CO2` [Cpd 33, 1-(3-nitro-4-bromo-phenyl)carbonyl-5′-aminomethyl-spiro[piperidine-4,3′-(2H)-benzo[b]furan]], 430 nM.
Turning to `CSc1cc(-c2ccc(Cl)cc2)c(C(=O)N2CCC3(CC2)COc2ccc(CN)cc23)s1` [Cpd 299, 1-[3-(4-chloro-phenyl)-5-methylthio-thien-2-yl]carbonyl-5′-aminomethyl-spiro[piperidine-4,3′-(2H)-benzo[b]furan]], inhibition was half-maximal at 17 nM (IC50).
Regarding `Cc1c(C#N)sc2sc(C(=O)N3CCC4(CC3)COc3ccc(CN)cc34)c(C)c12` [Cpd 226, 1-(3,4-dimethyl-5-cyano-thieno[2,3-b]thien-2-yl)carbonyl-5′-aminomethyl-spiro[piperidine-4,3′-(2H)-benzo[b]furan]], it took 3200 nM to reach half-maximal inhibition (IC50).
As for `NCc1ccc2c(c1)C1(CCN(C(=O)c3sc4cc(Br)ccc4c3Cl)CC1)CO2` [Cpd 230, 1-(3-chloro-6-bromo-benzo[b]thien-2-yl)carbonyl-5′-aminomethyl-spiro[piperidine-4,3′-(2H)-benzo[b]furan]], the figure is 140 nM; as for `Cc1cc(C(=O)N2CCC3(CC2)COc2ccc(CN)cc23)ccc1Br` [Cpd 30, 1-(3-methyl-4-bromo-phenyl)carbonyl-5′-aminomethyl-spiro[piperidine-4,3′-(2H)-benzo[b]furan]], 140 nM.
In the case of `NCc1ccc2c(c1)C1(CCN(C(=O)Cc3ccc(-c4ccccc4)cc3)CC1)CO2` [Cpd 92, 1-(4-phenyl-benzyl)carbonyl-5′-aminomethyl-spiro[piperidine-4,3′-(2H)-benzo[b]furan]] it was 490 nM; in that of `NCc1ccc2c(c1)C1(CCN(C(=O)Cc3cccc(F)c3)CC1)CO2` [Cpd 80, 1-(3-fluoro-benzyl)carbonyl-5′-aminomethyl-spiro[piperidine-4,3′-(2H)-benzo[b]furan]], 2700 nM.
Molecule `NCc1ccc2c(c1)C1(CCN(C(=O)C#Cc3ccccc3)CC1)CO2` [Cpd 296, 1-phenylethynylcarbonyl-5′-aminomethyl-spiro[piperidine-4,3′-(2H)-benzo[b]furan]] came in with a half-inhibitory concentration (IC50) of 210 nM.
The molecule `Cc1cccc(CC(=O)N2CCC3(CC2)COc2ccc(CN)cc23)c1` [Cpd 89, 1-(3-methyl-benzyl)carbonyl-5′-aminomethyl-spiro[piperidine-4,3′-(2H)-benzo[b]furan]] had an IC50 of 1400 nM.
For the molecule `NCc1ccc2c(c1)C1(CCN(C(=O)c3csc(-c4ccncc4)n3)CC1)CO2` [Cpd 122, 1-(2-pyridin-4-yl-thiazol-4-yl)carbonyl-5′-aminomethyl-spiro[piperidine-4,3′-(2H)-benzo[b]furan]], the IC50 stood at 760 nM.
In turn, `COc1ccccc1/C=C/C(=O)N1CCC2(CC1)COc1ccc(CN)cc12` [Cpd 194, (E)-1-(2-methoxy-phenylethenyl)carbonyl-5′-aminomethyl-spiro[piperidine-4,3′-(2H)-benzo[b]furan]] showed an IC50 of 150 nM.
In the case of `Cc1nc(-c2ccc(C(F)(F)F)cc2)sc1C(=O)N1CCC2(CC1)COc1ccc(CN)cc12` [Cpd 128, 1-[2-(4-trifluoromethyl-phenyl)-4-methyl-thiazol-5-yl]carbonyl-5′-aminomethyl-spiro[piperidine-4,3′-(2H)-benzo[b]furan]] it was 170 nM.
As for `NCc1ccc2c(c1)C1(CCN(C(=O)c3ccc(Br)s3)CC1)CO2` [Cpd 198, 1-(5-bromo-thien-2-yl)carbonyl-5′-aminomethyl-spiro[piperidine-4,3′-(2H)-benzo[b]furan]], the figure is 73 nM.
As for `NCc1ccc2c(c1)C1(CCN(C(=O)c3ccc(CCc4ccccc4)o3)CC1)CO2` [Cpd 107, 1-(5-phenethyl-furan-2-yl)carbonyl-5′-aminomethyl-spiro[piperidine-4,3′-(2H)-benzo[b]furan]], the figure is 82 nM; as for `NCc1ccc2c(c1)C1(CCN(C(=O)c3ccc(I)cc3)CC1)CO2` [Cpd 49, 1-(4-iodo-phenyl)carbonyl-5′-aminomethyl-spiro[piperidine-4,3′-(2H)-benzo[b]furan]], 130 nM; as for `NCc1ccc2c(c1)C1(CCN(C(=O)c3ccc(Cl)c(Cl)c3)CC1)C(=O)N2` [Cpd 315, 1-(3,4-dichlorophenyl)carbonyl-2′-oxo-5′-aminomethyl-spiro[piperidine-4,3′-(2H)-indole]], 480 nM.
The molecule `NCc1ccc2c(c1)C1(CCN(C(=O)c3ccc(C#Cc4ccccc4)o3)CC1)CN2S(=O)(=O)c1cccc(C(=O)O)c1` [Cpd 331, 1-(5-phenylethynyl-furan-2-yl)carbonyl-1′-(3-carboxy-phenyl)sulfonyl-5′-aminomethyl-spiro[piperidine-4,3′-(2H)-indole]] showed an IC50 of 41 nM.
For `NCc1ccc2c(c1)C1(CCN(C(=O)/C=C\c3ccco3)CC1)CO2` [Cpd 242, (Z)-1-(furan-2-ylethenyl)carbonyl-5′-aminomethyl-spiro[piperidine-4,3′-(2H)-benzo[b]furan]], the IC50 was 650 nM.
In the case of `Cc1c(C(=O)N2CCC3(CC2)COc2ccc(CN)cc23)oc2c1C(=O)CC(c1ccccc1)C2` (centres unmarked) [Cpd 222, 1-(3-methyl-4-oxo-6-phenyl-5,6,7-trihydro-4H-benzo[b]furan-2-yl)carbonyl-5′-aminomethyl-spiro[piperidine-4,3′-(2H)-benzo[b]furan]] it was 260 nM; in that of `CCCOc1sc(C(=O)N2CCC3(CC2)COc2ccc(CN)cc23)c(C)c1Br` [Cpd 303, 1-(3-methyl-4-bromo-5-propoxy-thien-2-yl)carbonyl-5′-aminomethyl-spiro[piperidine-4,3′-(2H)-benzo[b]furan]], 3.7 nM.
In the case of `CCc1ccc2c(Cl)c(C(=O)N3CCC4(CC3)COc3ccc(CN)cc34)sc2c1` [Cpd 271, 1-(3-chloro-6-ethyl-benzo[b]thien-2-yl)carbonyl-5′-aminomethyl-spiro[piperidine-4,3′-(2H)-benzo[b]furan]] it was 2800 nM; in that of `NCc1ccc2c(c1)C1(CCN(C(=O)/C=C/c3cccc(F)c3F)CC1)CO2` [Cpd 312, (E)-1-(2,3-difluoro-phenylethenyl)carbonyl-5′-aminomethyl-spiro[piperidine-4,3′-(2H)-benzo[b]furan]], 590 nM.
